Laboratory results as given in ChEMBL document CHEMBL4414581, “Cytotoxic Limonoids from the Twigs and Leaves of Toona ciliata” (J Nat Prod, 2019).

Columns and labels:
A549 = test: Cytotoxicity against human A549 cells assessed as reduction in cell viability measured after 48 hrs by MTS assay; assay type: functional, cell-based; conditions: A549, 48 h
[1] = Cytotoxicity against human […] cells assessed as reduction in cell viability measured after 48 hrs by MTS assay; assay type: functional, cell-based
HL-60 = test: Cytotoxicity against human HL60 cells assessed as reduction in cell viability measured after 48 hrs by MTS assay; assay type: functional, cell-based; conditions: HL-60, 48 h
MCF7 = test: Cytotoxicity against human MCF7 cells assessed as reduction in cell viability measured after 48 hrs by MTS assay; assay type: functional, cell-based; conditions: MCF7, 48 h
SW480 = test: Cytotoxicity against human SW480 cells assessed as reduction in cell viability measured after 48 hrs by MTS assay; assay type: functional, cell-based; conditions: SW480, 48 h
RAW264.7 = test: Anti-inflammatory activity in mouse RAW264.7 cells assessed as inhibition of LPS-induced nitric oxide production measured after 18 hrs by Griess assay; assay type: functional, cell-based; conditions: RAW264.7, 18 h
[2] = Cytotoxicity against mouse RAW264.7 cells assessed as cell viability measured after 48 hrs by MTS assay relative to control; assay type: cell-based; conditions: read-out: Activity

With `CC(=O)O[C@H]1[C@H]2O[C@H]3C[C@@H](O)[C@]4(C)OC(=O)[C@H](O)[C@]4(O)[C@@]3(C)[C@@H]2[C@@](C)(O)[C@@]23O[C@@H]2C[C@@H](c2ccoc2)[C@]13C` the IC50 (A549) was greater than 10 µM, the IC50 [1] was greater than 10 µM and the IC50 (HL-60) was 1.6 µM. It also gave an IC50 (MCF7) of 3.7 µM and an IC50 (SW480) of 4 µM.

Molecule `CC1(C)OC(=O)C=C[C@]2(C)[C@H]3CC[C@@]4(C)[C@H](C5=CC(=O)NC5=O)C[C@H]5O[C@]54[C@]3(C)C(=O)C[C@@H]12` has an IC50 (A549) greater than 10 µM, an IC50 (RAW264.7) of 28.3 µM and a viability at 48 h [2] greater than 100%. It also gave an IC50 [1] greater than 10 µM, an IC50 (HL-60) greater than 10 µM and an IC50 (MCF7) greater than 10 µM. The IC50 (SW480) was greater than 10 µM.

In the case of `C[C@]12[C@H](C[C@@H](O)[C@]3(C)OC(=O)[C@H](O)[C@]13O)O[C@@H]1C[C@@]3(C)[C@H](c4ccoc4)C[C@H]4O[C@]43[C@](C)(O)[C@H]12`, the IC50 (A549) is reported as greater than 10 µM, the IC50 [1] is reported as greater than 10 µM and the IC50 (HL-60) is reported as 0.6 µM. For the same molecule, the IC50 (MCF7) was 0.9 µM and the IC50 (SW480) was 0.9 µM.

`C[C@]12[C@H](CC(=O)[C@]3(C)OC(=O)[C@H](O)[C@]13O)O[C@H]1[C@H]2[C@@](C)(O)[C@@]23O[C@@H]2C[C@@H](c2ccoc2)[C@]3(C)[C@H]1O` gave an IC50 (A549) greater than 10 µM, an IC50 [1] greater than 10 µM and an IC50 (HL-60) of 0.9 µM. The IC50 (MCF7) was 3 µM and the IC50 (SW480) was 2.5 µM.

Molecule `CO[C@@H]1C=C([C@@H]2C[C@H]3O[C@@]34[C@@]2(C)C[C@H]2O[C@H]3C[C@H](O)[C@]5(C)OC(=O)[C@H](O)[C@]5(O)[C@@]3(C)[C@@H]2[C@@]4(C)O)C(=O)O1` has an IC50 (A549) greater than 10 µM, an IC50 [1] greater than 10 µM and an IC50 (HL-60) greater than 10 µM. It also gave an IC50 (MCF7) greater than 10 µM and an IC50 (SW480) greater than 10 µM.

With `CC1(C)C(=O)C=C[C@]2(C)C3=CC[C@@]4(C)[C@H](C5=CCNC5=O)C[C@H]5O[C@]54[C@]3(C)C(=O)C[C@@H]12` the IC50 (A549) was greater than 10 µM, the IC50 [1] was greater than 10 µM and the IC50 (HL-60) was greater than 10 µM. It also gave an IC50 (MCF7) greater than 10 µM and an IC50 (SW480) greater than 10 µM.

Work on `CC(=O)O[C@@H]1C[C@]2(C)[C@@H](C(=O)C[C@H]2c2ccoc2)[C@]2(C)[C@H](O)C[C@H]3C(C)(C)OC(=O)C=C[C@]3(C)[C@@H]12` yielded an IC50 (A549) greater than 10 µM, an IC50 [1] greater than 10 µM and an IC50 (HL-60) greater than 10 µM. The IC50 (MCF7) was greater than 10 µM and the IC50 (SW480) was greater than 10 µM.

Work on `CO[C@@H]1C=C([C@@H]2C[C@H]3O[C@@]34[C@@]2(C)CC[C@@H]2[C@@]3(C)C=CC(=O)OC(C)(C)[C@@H]3CC(=O)O[C@]24C)C(=O)O1` yielded an IC50 (A549) greater than 10 µM, an IC50 [1] greater than 10 µM and an IC50 (HL-60) greater than 10 µM. It also gave an IC50 (MCF7) greater than 10 µM and an IC50 (SW480) greater than 10 µM.

Work on `CO[C@@H]1C=C([C@@H]2C[C@H]3O[C@@]34[C@@]2(C)C[C@H]2O[C@@]3(O)C=C[C@]5(C)OC(=O)[C@H](O)[C@]5(O)[C@@]3(C)[C@@H]2[C@@]4(C)O)C(=O)O1` yielded an IC50 (A549) greater than 10 µM, an IC50 [1] greater than 10 µM and an IC50 (HL-60) greater than 10 µM. For the same molecule, the IC50 (MCF7) was greater than 10 µM and the IC50 (SW480) was greater than 10 µM.

In the case of `C[C@]12[C@H](C[C@H](O)[C@]3(C)OC(=O)[C@H](O)[C@]13O)O[C@@H]1C[C@@]3(C)[C@H](c4ccoc4)C[C@H]4O[C@]43[C@](C)(O)[C@H]12`, the IC50 (A549) is reported as greater than 10 µM, the IC50 [1] is reported as greater than 10 µM and the IC50 (HL-60) is reported as greater than 10 µM. For the same molecule, the IC50 (MCF7) was greater than 10 µM and the IC50 (SW480) was greater than 10 µM.

Molecule `C[C@]12[C@H](c3ccoc3)C[C@H]3O[C@]31[C@](C)(O)[C@@H]1[C@H](O[C@@]3(O)C=C[C@]4(C)OC(=O)[C@H](O)[C@]4(O)[C@@]13C)[C@@H]2O` has an IC50 (A549) greater than 10 µM, an IC50 [1] greater than 10 µM and an IC50 (HL-60) greater than 10 µM. For the same molecule, the IC50 (MCF7) was greater than 10 µM and the IC50 (SW480) was greater than 10 µM.

`CC1(C)OC(=O)C=C[C@]2(C)[C@H]3[C@H](O)C[C@@]4(C)[C@H](c5ccoc5)C[C@H]5O[C@]54[C@]3(C)C(=O)C[C@@H]12` gave an IC50 (A549) greater than 10 µM, an IC50 [1] greater than 10 µM and an IC50 (HL-60) greater than 10 µM. For the same molecule, the IC50 (MCF7) was greater than 10 µM and the IC50 (SW480) was greater than 10 µM.

Molecule `CC(=O)O[C@@H]1C[C@@H]2O[C@@H]3C[C@@]4(C)[C@H](c5ccoc5)C[C@H]5O[C@]54[C@](C)(O)[C@H]3[C@]2(C)[C@@]2(O)[C@@H](O)C(=O)O[C@@]12C` has an IC50 (A549) greater than 10 µM, an IC50 [1] greater than 10 µM and an IC50 (HL-60) greater than 10 µM. For the same molecule, the IC50 (MCF7) was 2.4 µM and the IC50 (SW480) was 3.7 µM.

`CC(=O)O[C@H]1[C@@H](OC(C)=O)[C@]2(C)[C@H]([C@H](O)C[C@@]3(C)[C@H](c4ccoc4)C[C@H]4O[C@@]423)[C@@]2(C)C=CC(=O)OC(C)(C)[C@H]12` showed an IC50 (A549) greater than 10 µM, an IC50 [1] greater than 10 µM and an IC50 (HL-60) greater than 10 µM. For the same molecule, the IC50 (MCF7) was greater than 10 µM and the IC50 (SW480) was greater than 10 µM.

Molecule `CC(=O)O[C@H]1C(=O)O[C@@]2(C)[C@H](OC(C)=O)C[C@@H]3O[C@@H]4C[C@@]5(C)[C@H](c6ccoc6)C[C@H]6O[C@]65[C@](C)(O)[C@H]4[C@]3(C)[C@@]12O` has an IC50 (A549) greater than 10 µM, an IC50 [1] greater than 10 µM and an IC50 (HL-60) greater than 10 µM. For the same molecule, the IC50 (MCF7) was 2.1 µM and the IC50 (SW480) was 2.3 µM.

Molecule `C[C@]12[C@H](C[C@H](O)[C@]3(C)OC(=O)[C@H](O)[C@]13O)O[C@H]1[C@H]2[C@@](C)(O)[C@@]23O[C@@H]2C[C@@H](c2ccoc2)[C@]3(C)[C@H]1O` has an IC50 (A549) greater than 10 µM, an IC50 [1] greater than 10 µM and an IC50 (HL-60) greater than 10 µM. It also gave an IC50 (MCF7) greater than 10 µM and an IC50 (SW480) greater than 10 µM.

Molecule `CC1(C)OC(=O)C=C[C@]2(C)[C@H]3CC[C@]4(C)[C@@H](C(=O)C[C@H]4c4ccoc4)[C@]3(C)[C@H](O)C[C@@H]12` has an IC50 (A549) greater than 10 µM, an IC50 [1] greater than 10 µM and an IC50 (HL-60) greater than 10 µM. For the same molecule, the IC50 (MCF7) was greater than 10 µM and the IC50 (SW480) was greater than 10 µM.

Work on `CO[C@]12C=C[C@]3(C)OC(=O)[C@H](O)[C@]3(O)[C@@]1(C)[C@H]1[C@@H](C[C@@]3(C)[C@H](c4ccoc4)C[C@H]4O[C@]43[C@]1(C)O)O2` yielded an IC50 (A549) greater than 10 µM, an IC50 [1] greater than 10 µM and an IC50 (HL-60) greater than 10 µM. It also gave an IC50 (MCF7) greater than 10 µM and an IC50 (SW480) greater than 10 µM.

`C[C@]12[C@H]3[C@@H](C[C@@]4(C)[C@H](C5=CCNC5=O)C[C@H]5O[C@]54[C@]3(C)O)O[C@@]1(O)C=C[C@]1(C)OC(=O)[C@H](O)[C@]21O` showed an IC50 (A549) greater than 10 µM, an IC50 [1] greater than 10 µM and an IC50 (HL-60) greater than 10 µM. For the same molecule, the IC50 (MCF7) was greater than 10 µM and the IC50 (SW480) was greater than 10 µM.

In the case of `CC1(C)OC(=O)C=C[C@]2(C)[C@H]3CC[C@@]4(C)[C@H](C5=CCNC5=O)C[C@H]5O[C@]54[C@]3(C)OC(=O)C[C@@H]12`, the IC50 (A549) is reported as greater than 10 µM, the IC50 [1] is reported as greater than 10 µM and the IC50 (HL-60) is reported as greater than 10 µM. It also gave an IC50 (MCF7) greater than 10 µM and an IC50 (SW480) greater than 10 µM.

In the case of `CC1(C)OC(=O)C=C[C@]2(C)[C@H]3C[C@H](O)[C@@]4(C)[C@H](c5ccoc5)C[C@H]5O[C@]54[C@]3(C)OC(=O)C[C@@H]12`, the IC50 (A549) is reported as greater than 10 µM, the IC50 [1] is reported as greater than 10 µM and the IC50 (HL-60) is reported as greater than 10 µM. It also gave an IC50 (MCF7) greater than 10 µM and an IC50 (SW480) greater than 10 µM.

Molecule `C[C@]12[C@H]3[C@@H](C[C@@]4(C)[C@H](c5ccoc5)C[C@H]5O[C@]54[C@]3(C)O)O[C@@]1(O)C=C[C@]1(C)OC(=O)[C@H](O)[C@]21O` has an IC50 (A549) greater than 10 µM, an IC50 [1] greater than 10 µM and an IC50 (HL-60) of 2.3 µM. For the same molecule, the IC50 (MCF7) was 2.1 µM and the IC50 (SW480) was 1.5 µM.

In the case of `C[C@]12[C@H](CC(=O)[C@]3(C)OC(=O)[C@H](O)[C@]13O)O[C@@H]1C[C@@]3(C)[C@H](c4ccoc4)C[C@H]4O[C@]43[C@](C)(O)[C@H]12`, the IC50 (A549) is reported as greater than 10 µM, the IC50 [1] is reported as greater than 10 µM and the IC50 (HL-60) is reported as 0.8 µM. It also gave an IC50 (MCF7) of 4 µM and an IC50 (SW480) of 2.3 µM.
